Experimental data taken from patent US20230043678A1, “USE OF 5-METHYLTETRAHYDROFOLATE” (priority 2019, published 2023).

Key:
fetal rat heart = assay: Effect of folic acid on fetal rat heart under pharmacological dose (Example 9); type: in vivo, rats
Method: In order to investigate an effect of folic acid on fetal rat heart under pharmacological dose, 6 folic acid groups and a blank control group were divided in the experiment, the folic acid groups were divided into a folic acid group 1 (4.555 mg/kg/d), a folic acid group 2 (2.2775 mg/kg/d), a folic acid group 3 (0.911 mg/kg/d), a folic acid group 4 (0.4555 mg/kg/d), a folic acid group 5 (0.22775 mg/kg/d) and a folic acid group 6 (0.113875 mg/kg/d). The folic acid groups and the blank control group consisted of 4 pregnant mice each. The pregnant mice in the folic acid group 1 (4.555 mg/kg/d), the folic acid group 2 (2.2775 mg/kg/d) and the folic acid group 3 (0.911 mg/kg/d) were intraperitoneally injected, the pregnant mice in the folic acid group 4 (0.4555 mg/kg/d), the folic acid group 5 (0.22775 mg/kg/d) and the folic acid group 6 (0.113875 mg/kg/d) were intragastrically administrated, and the pregnant mice in the blank control group were naturally fed. After the female rats were administrated for 7 days, male and female rats were mated in a cage at a ratio of 1:1 overnight, a vaginal plug was checked the next morning, a day when the vaginal plug was found was regarded as day 0 of pregnancy, the pregnant mice were separately fed and administrated for 21 consecutive days, a fetus was obtained by cesarean section, and the number of fetal rats in each group was shown in FIG. 30. Fetal rat hearts were taken for a pathological examination and the results were as follows.

heart of neonatal mice = settings: mouse, in vivo
Method: 75 7-week-old female C57BL/6J mice and 25 8-week-old male C57BL/6J mice were provided by Shanghai Lingchang Biotechnology Co., Ltd. with a certificate number of SCXK (Shanghai) 2018-0003. […] The female mice were randomly divided into 5 groups according to body weight: a solvent control group, a folic acid (151.66 μg/kg) group, a folic acid (303.32 μg/kg) group, a calcium 5-methyltetrahydrofolate (converted to folic acid, 151.66 μg/kg) group and a calcium 5-methyl tetrahydrofolate (converted to folic acid, 303.32 μg/kg) group. 1.1275 unit mass of the calcium 5-methyltetrahydrofolate equaled to 1 unit mass of the folic acid.
15 mice were in each group and numbered by a toe clipping method. The mice were intragastrically administrated once a day on the second day after grouping. One week after the pre-administration, male and female mice were caged at a ratio of […], a vaginal plug was observed every day from the next day, and a day when the vaginal plug was seen was recorded as day 0.5 of pregnancy. After 14 days of caging, the female mice stopped the administration, the male mice were removed, and the pregnant female mice were fed alone until litter.
In addition, 4-5 mice were randomly selected from each group and the 6-day-old small animals were subjected to cardiac echocardiography (Vevo 2100 Imaging System, VisualSonics, Toronto, ON, Canada).

[1] = test system: congenital heart defects in offspring; settings: cited from earlier work
[2] = Group 1: folic acid 4.555 mg/kg/d intraperitoneal
[3] = Group 2: folic acid 2.2775 mg/kg/d intraperitoneal
[4] = Group 3: folic acid 0.911 mg/kg/d intraperitoneal
[5] = Group 4: folic acid 0.4555 mg/kg/d intragastric
[6] = Group 5: folic acid 0.22775 mg/kg/d intragastric
[7] = Group 6: folic acid 0.113875 mg/kg
[8] = Group 6: folic acid 0.113875 mg/kg/d intragastric

Q: Which Atrioventricular defects/septal defects (fetal rat heart; [2]) does the source give for `Nc1nc2ncc(CNc3ccc(C(=O)N[C@@H](CCC(=O)O)C(=O)O)cc3)nc2c(=O)[nH]1` [FA, pteroylglutamic acid] here?
A: 3

Q: What about the Development delay (fetal rat heart; [2]) of the same compound?
A: 1

Q: And the Malformation cases (fetal rat heart; [2])?
A: 4

Q: What about the Malformation rate (fetal rat heart; [2]) of the same compound?
A: 12.9%

Q: What about the Sparse myocardial trabeculae (fetal rat heart; [2]) of the same compound?
A: 0

Q: And the Atrioventricular defects/septal defects (fetal rat heart; [3])?
A: 2

Q: And the Development delay (fetal rat heart; [3])?
A: 2

Q: And the Malformation cases (fetal rat heart; [3])?
A: 4

Q: And the Malformation rate (fetal rat heart; [3])?
A: 12.1%

Q: What about the Sparse myocardial trabeculae (fetal rat heart; [3]) of the same compound?
A: 0

Q: What about the Atrioventricular defects/septal defects (fetal rat heart; [4]) of the same compound?
A: 1

Q: What about the Development delay (fetal rat heart; [4]) of the same compound?
A: 2

Q: And the Malformation cases (fetal rat heart; [4])?
A: 3

Q: What about the Malformation rate (fetal rat heart; [4]) of the same compound?
A: 11.5%

Q: What about the Sparse myocardial trabeculae (fetal rat heart; [4]) of the same compound?
A: 0

Q: And the Atrioventricular defects/septal defects (fetal rat heart; [5])?
A: 5

Q: What about the Development delay (fetal rat heart; [5]) of the same compound?
A: 0

Q: And the Malformation cases (fetal rat heart; [5])?
A: 5

Q: And the Malformation rate (fetal rat heart; [5])?
A: 17.2%

Q: And the Sparse myocardial trabeculae (fetal rat heart; [5])?
A: 0

Q: What about the Atrioventricular defects/septal defects (fetal rat heart; [6]) of the same compound?
A: 5

Q: What about the Development delay (fetal rat heart; [6]) of the same compound?
A: 0

Q: What about the Malformation cases (fetal rat heart; [6]) of the same compound?
A: 5

Q: And the Malformation rate (fetal rat heart; [6])?
A: 15.2%

Q: What about the Sparse myocardial trabeculae (fetal rat heart; [6]) of the same compound?
A: 0

Q: What about the “atrial walls defective (number of individuals)” value (fetal rat heart; [7]) of the same compound?
A: 1

Q: And the “ventricular septal defects (number of individuals)” value (fetal rat heart; [7])?
A: 3

Q: And the Atrioventricular defects/septal defects (fetal rat heart; [8])?
A: 4

Q: What about the Development delay (fetal rat heart; [8]) of the same compound?
A: 1

Q: And the Malformation cases (fetal rat heart; [8])?
A: 4

Q: And the Malformation rate (fetal rat heart; [8])?
A: 9.5%

Q: And the Sparse myocardial trabeculae (fetal rat heart; [8])?
A: 0

Q: And the “left ventricular internal diameter end-diastole (LVID(d))” value (heart of neonatal mice)?
A: significantly lower than those of other groups

Q: And the “left ventricular internal diameter end-systole (LVID(s))” value (heart of neonatal mice)?
A: significantly lower than those of other groups

Q: And the “reduction of risk of CHD” value ([1]; folic acid supplementation, hospital case-control studies in Guangdong, Hubei, Fujian and Shanxi)?
A: 65%

Q: What about the “lower risk of giving birth to infants with heart defects” value ([1]; women taking folic acid, case-control study, north of the Netherlands) of the same compound?
A: approximately 20%
